Test results published in patent publication US4942171A, “The compound, 6-(1-imidazolyl methyl)-5,6,7,8-tetrahydronaphthalene-2-carboxylic acid and salts thereof having antidiabetic activity” (Daiichi Seiyaku Co., Ltd., priority 1987, dated 1990).
Structures can show the parent of a compound that is named as a salt.

What was measured:
[1] = tested on: spontaneous hypertensive male rats (SHR); test: Efficacy in Diabetic Model: Determination of Blood Sugar Level, non-diabetic SHR; assay type: in vivo, rat; settings: for Blood Sugar Level: SHR (n = 8), mean ± S.E.
Procedure: (§1) 5-Week old spontaneous hypertensive male rats (SHR), available from Nippon Charles River, were used. Streptozotocin (STZ) was dissolved in a 0.1M citrate buffer solution (pH 4.5) and injected into the tail vein of the rats at a dose level of 50 mg/kg to prepare diabetic rats. For control, rats received 1 ml/kg of the citrate buffer solution alone through administration to the tail vein. After one week from the STZ administration, blood was taken from the tail vein of the unanesthetized rats, and the blood sugar level was determined. Those rats having a blood sugar level of 300 mg/dl or higher were used as diabetic rats.
(§2) 6-(1-Imidazolylmethyl)-5,6,7,8-tetrahydronaphthalene- 2-carboxylic acid hydrochloride hemihydrate (hereinafter referred to as Compound A) was dissolved in distilled water and administered orally to the test animals at a dose level of 1 mg/kg/day or 10 mg/kg/day for 5 consecutive months from one week after the administration of STZ or a citrate buffer solution.
(§3) Just before the administration of Compound A, blood was sampled from the tail vein of the rats without any restriction of diet to determine the blood sugar level using a commercial glucose assay kit (Trade name: New Blood Sugar Test, produced by Boehringer Mannheim Co., Ltd., West Germany). The results are shown in Table 1, expressed as mean ±S.E.

[2] = tested on: streptozotocin-induced diabetic spontaneous hypertensive rats; test: Efficacy in Diabetic Model: Determination of Blood Sugar Level, STZ-induced diabetic SHR; assay type: in vivo, rat; settings: for Blood Sugar Level: Diabetic SHR (n = 7), mean ± S.E.
Procedure: as §1, §2, §3

diabetic SHR = test: Determination of Glucose Tolerance in diabetic SHR; assay type: in vivo, rat; settings: for Blood Sugar Level (Effect on Glucose Tolerance): 3 months
Procedure: as §1, §2
After 3 months from the start of the administration of Compound A, the rats were fasted for 18 hours. Glucose was administered orally to the rats at a dose level of 2 g/kg. Blood was sampled from the tail vein of the rats just before the administration of glucose and at 1 hour and 2 hours after the administration to determine the blood sugar lever using the above method. The result was shown in Table 2, expressed as mean +S.E.

Acute Toxicity in Rats = settings: rat, in vivo
Excerpt: Acute toxicities of Compound A in rats through oral administration or intravenous injection were as follows.

[3] = 1 mg/kg/day p.o., 0 weeks (before administration)
[4] = 10 mg/kg/day p.o., 0 weeks (before administration)

O=C(O)c1ccc2c(c1)CCC(Cn1ccnc1)C2 (centres unmarked) [Compound A, 6-(1-Imidazolylmethyl)-5,6,7,8-tetrahydronaphthalene-2-carboxylic acid hydrochloride hemihydrate]
Blood Sugar Level [1, 3]: 100.7 mg/dL
Blood Sugar Level ([1]; 1 mg/kg/day p.o., 2 weeks): 95.4 mg/dL
Blood Sugar Level ([1]; 1 mg/kg/day p.o., 8 weeks): 94.5 mg/dL
Blood Sugar Level [1, 4]: 108.0 mg/dL
Blood Sugar Level ([1]; 10 mg/kg/day p.o., 2 weeks): 90.9 mg/dL
Blood Sugar Level ([1]; 10 mg/kg/day p.o., 8 weeks): 93.2 mg/dL
effect on blood sugar level in SHR ([1]; non-diabetic SHR): not affected
effect on blood sugar level of diabetic SHR ([2]; 8 weeks after the start of administration): significantly lowered the blood sugar level
Blood Sugar Level [2, 3]: 374.6 mg/dL
Blood Sugar Level ([2]; 1 mg/kg/day p.o., 2 weeks, control 481.5): 406.3 mg/dL
Blood Sugar Level ([2]; 1 mg/kg/day p.o., 8 weeks, control 544.2): 445.0 mg/dL
Blood Sugar Level [2, 4]: 361.4 mg/dL
Blood Sugar Level ([2]; 10 mg/kg/day p.o., 2 weeks, control 481.5, *P < 0.05 vs control): 365.2 mg/dL
Blood Sugar Level ([2]; 10 mg/kg/day p.o., 8 weeks, control 544.2, **P < 0.01 vs control): 277.3 mg/dL
effect on high blood sugar level of diabetic SHR ([2]; from 2 weeks after the start of administration): tendency to lower the high blood sugar level
Blood Sugar Level (Effect on Glucose Tolerance) (diabetic SHR; 1 mg/kg/day p.o. (n = 7), 1 hour after glucose load (2 g/kg p.o.), control 329.5): 255.4 mg/dL
Blood Sugar Level (Effect on Glucose Tolerance) (diabetic SHR; 1 mg/kg/day p.o. (n = 7), 2 hours after glucose load (2 g/kg p.o.), control 280.8): 167.3 mg/dL
Blood Sugar Level (Effect on Glucose Tolerance) (diabetic SHR; 1 mg/kg/day p.o. (n = 7), just before the glucose load (2 g/kg p.o.), control 178.5): 136.8 mg/dL
Blood Sugar Level (Effect on Glucose Tolerance) (diabetic SHR; 10 mg/kg/day p.o. (n = 8), 1 hour after glucose load (2 g/kg p.o.), control 329.5, *P < 0.05 vs control): 202.4 mg/dL
Blood Sugar Level (Effect on Glucose Tolerance) (diabetic SHR; 10 mg/kg/day p.o. (n = 8), 2 hours after glucose load (2 g/kg p.o.), control 280.8): 137.1 mg/dL
Blood Sugar Level (Effect on Glucose Tolerance) (diabetic SHR; 10 mg/kg/day p.o. (n = 8), just before the glucose load (2 g/kg p.o.), control 178.5): 105.1 mg/dL
glucose tolerance in the diabetic SHR (diabetic SHR; rat, in vivo): improved the glucose tolerance
LD50 (Acute Toxicity in Rats; iv, female rats): 783 mg/kg
LD50 (Acute Toxicity in Rats; iv, male rats): 807 mg/kg
LD50 (Acute Toxicity in Rats; po, female rats): 1990 mg/kg
LD50 (Acute Toxicity in Rats; po, male rats): 2440 mg/kg
